The source of these data is paper PMC6328172, “5-HT2 receptor binding, functional activity and selectivity in N-benzyltryptamines” (PLoS ONE, 2019).

“And” between values parts separate entries of the source, which are not always exact repeats. Identical values can stand only once. Counter-ions that a name gives are not always drawn. Like-named read-outs stand apart in the source and are kept apart here.

Series [1] concerns head twitch response. The series can be described thus: Mouse head twitch response (HTR) assay (literature). The format is in vivo. Conditions: from the HTR ED50 values.
For series [2], the target named is 5-HT2A receptor. The following applies: described by Nichols; cited from earlier work.
The subject of series [3] is head twitch response. Conditions: cited from earlier work.
Series [4] deals with T1, human 5-HT2A receptor (Homo sapiens, UniProt P28223).
T1 construct: expressed in transfected cells; host or cells: CHO (CHO-5-HT2A cell line)
The series is described as follows: Competition binding to the human 5-HT2A receptor ([3H]ketanserin, CHO-5-HT2A membranes). Conditions: for Selectivity 5-HT2A/2C (binding): from Ki values, Table 1; for Ki: human receptor, [3H]ketanserin displacement, no unit in the table, nM, read-out: 5-HT2A Ki (in parentheses) (converted).

Series [5] has as its target T2, human 5-HT2C receptor (Homo sapiens, UniProt P28335).
T2 construct: expressed in transfected cells; host or cells: HeLa (HeLa-5-HT2C cell line)
T2 sequence (P28335 33-458): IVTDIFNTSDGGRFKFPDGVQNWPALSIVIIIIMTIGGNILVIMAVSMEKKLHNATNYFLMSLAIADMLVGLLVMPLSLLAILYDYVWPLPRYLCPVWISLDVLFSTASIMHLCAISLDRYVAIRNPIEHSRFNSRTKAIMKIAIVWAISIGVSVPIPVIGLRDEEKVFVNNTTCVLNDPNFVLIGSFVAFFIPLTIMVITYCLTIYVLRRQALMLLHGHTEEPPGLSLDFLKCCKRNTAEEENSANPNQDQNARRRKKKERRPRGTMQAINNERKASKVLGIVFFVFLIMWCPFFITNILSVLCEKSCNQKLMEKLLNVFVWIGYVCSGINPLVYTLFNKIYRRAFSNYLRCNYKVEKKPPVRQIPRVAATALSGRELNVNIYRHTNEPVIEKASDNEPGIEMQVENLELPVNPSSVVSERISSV
The series can be described thus: Competition binding to the human 5-HT2C receptor ([3H]mesulergine, HeLa-5-HT2C membranes). Conditions: for Selectivity 5-HT2C/2A (binding, in parentheses): from Ki values, Table 1; for Ki: human receptor, [3H]mesulergine displacement, no unit in the table, nM, read-out: 5-HT2C Ki (in parentheses) (converted).

For series [6], the target named is T1, human 5-HT2A receptor. The series is described as follows: Ca2+ mobilization in CHO h5-HT2A cells. The format is cell-based. Conditions: for EC50: no unit in the table, nM, read-out: 5-HT2A EC50 (in parentheses) (converted); for Selectivity 5-HT2A/2C (functional): from EC50 values, Table 2.
Series [7] deals with T2, human 5-HT2C receptor. The series is described as follows: Ca2+ mobilization in HeLa h5-HT2C cells. It is filed as cell-based. Conditions: for EC50: Ca2+ mobilization, no unit in the table, nM, read-out: 5-HT2C EC50 (in parentheses) (converted); for Emax: HeLa, read-out: 5-HT2C % Emax; for Selectivity 5-HT2C/2A (functional, in parentheses): from EC50 values, Table 2.
In series [8] the test system is 5-HT2A receptor. The following applies: described by Nichols; cited from earlier work. The source holds these as a separate data set.
Series [9] addresses human 5-HT2B receptor (Homo sapiens, UniProt P41595). The series is described as follows: Competition binding to the human 5-HT2B receptor ([3H]LSD, CHO-5-HT2B membranes).
Series [10] deals with 5-HT2A receptor. Details: method as in PMID 27216487. The following applies: reported affinity; cited from earlier work.
Series [11] addresses 5-HT2C receptor. Details: method as in PMID 27216487. Conditions: reported affinity; cited from earlier work.
[12] abbreviates: relative efficacy, % of response to 5-HT.

T1 sequence (P28223 whole entry): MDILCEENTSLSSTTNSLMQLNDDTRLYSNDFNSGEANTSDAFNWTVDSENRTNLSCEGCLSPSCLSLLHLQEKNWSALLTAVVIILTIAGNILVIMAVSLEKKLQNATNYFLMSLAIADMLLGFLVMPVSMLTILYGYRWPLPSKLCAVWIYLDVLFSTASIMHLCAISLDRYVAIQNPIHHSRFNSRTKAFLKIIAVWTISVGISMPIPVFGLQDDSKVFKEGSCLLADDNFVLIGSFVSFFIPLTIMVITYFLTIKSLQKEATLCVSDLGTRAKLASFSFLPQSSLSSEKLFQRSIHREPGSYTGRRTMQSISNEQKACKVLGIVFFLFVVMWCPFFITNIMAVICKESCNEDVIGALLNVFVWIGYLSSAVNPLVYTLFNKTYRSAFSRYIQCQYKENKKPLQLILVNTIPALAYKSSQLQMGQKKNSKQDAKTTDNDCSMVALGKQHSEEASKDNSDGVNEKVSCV
Sequence of human 5-HT2B receptor (P41595 whole entry): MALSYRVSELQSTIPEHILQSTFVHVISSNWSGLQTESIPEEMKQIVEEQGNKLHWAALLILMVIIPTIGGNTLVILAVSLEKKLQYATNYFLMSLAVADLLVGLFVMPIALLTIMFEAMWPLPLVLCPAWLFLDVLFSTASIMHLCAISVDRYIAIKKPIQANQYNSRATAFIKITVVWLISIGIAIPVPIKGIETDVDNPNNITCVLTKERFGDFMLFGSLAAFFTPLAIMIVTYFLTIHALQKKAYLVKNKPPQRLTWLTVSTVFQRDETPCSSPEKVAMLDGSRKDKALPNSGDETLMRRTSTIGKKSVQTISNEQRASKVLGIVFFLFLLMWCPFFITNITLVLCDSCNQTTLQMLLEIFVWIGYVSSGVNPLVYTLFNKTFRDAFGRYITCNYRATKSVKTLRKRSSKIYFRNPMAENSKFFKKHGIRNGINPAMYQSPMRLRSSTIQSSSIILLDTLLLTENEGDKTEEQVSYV

`Oc1cccc(CNCCc2c[nH]c3ccccc23)c1` (as salt: fumarate) [Compound 7, N-(3-Hydroxybenzyl)-[2-(1H-indol-3-yl)ethyl]amine]: the melting point lay within 206 to 207 °C.
As to `Cc1ccc(O)c(CNCCc2c[nH]c3ccccc23)c1` (as salt: fumarate) [Compound 23, N-(2-Hydroxy-5-methylbenzyl)-[2-(1H-indol-3-yl)ethyl]amine], the melting point was 183 to 185 °C.
Same read-out and setting: the value for `COc1ccc(O)c(CNCCc2c[nH]c3ccc(OC)cc23)c1` (as salt: fumarate) [Compound 42, N-(2-Hydroxy-5-methoxybenzyl)-[2-(5-methoxy-1H-indol-3-yl)ethyl]amine] was 196 to 197 °C; that for `COc1ccc2[nH]cc(CCNCc3cc(F)ccc3O)c2c1` (as salt: fumarate) [Compound 43, N-(5-Fluoro-2-hydroxybenzyl)-[2-(5-methoxy-1H-indol-3-yl)ethyl]amine] was 200 to 201 °C.
For `Oc1ccccc1CNCCc1c[nH]c2ccccc12` (as salt: hydrochloride) [Compound 2, N-(2-Hydroxybenzyl)-[2-(1H-indol-3-yl)ethyl]amine], the melting point is 222 to 223 °C.
`CCOc1ccc(CNCCc2c[nH]c3ccccc23)cc1` (as salt: hydrochloride) [Compound 15, N-(4-Ethoxybenzyl)-[2-(1H-indol-3-yl)ethyl]amine]: the melting point is 206 to 208 °C.
As to `COc1cccc(CNCCc2c[nH]c3ccccc23)c1OC` (as salt: hydrochloride) [Compound 20, N-(2,3-Dimethoxybenzyl)-[2-(1H-indol-3-yl)ethyl]amine], the melting point fell in the range of 210 to 212 °C.
The same measure, in the same setting: in the case of `Oc1ccc(F)cc1CNCCc1c[nH]c2ccccc12` (as salt: hydrochloride) [Compound 24, N-(5-Fluoro-2-hydroxybenzyl)-[2-(1H-indol-3-yl)ethyl]amine] it was 185 to 186 °C.
In turn, `COc1ccc(F)cc1CNCCc1c[nH]c2ccccc12` (as salt: hydrochloride) [Compound 25, N-(5-Fluoro-2-methoxybenzyl)-[2-(1H-indol-3-yl)ethyl]amine] showed a melting point of 179 to 180 °C.
Still for that read-out and setting: the value for `Oc1ccc(Br)cc1CNCCc1c[nH]c2ccccc12` (as salt: hydrochloride) [Compound 26, N-(5-Bromo-2-hydroxybenzyl)-[2-(1H-indol-3-yl)ethyl]amine] was 188 to 189 °C; that for `COc1ccc(Br)cc1CNCCc1c[nH]c2ccccc12` (as salt: hydrochloride) [Compound 27, N-(5-Bromo-2-methoxybenzyl)-[2-(1H-indol-3-yl)ethyl]amine] was 192 to 193 °C.
Turning to `COc1ccc(Cl)cc1CNCCc1c[nH]c2ccccc12` (as salt: hydrochloride) [Compound 28, N-(5-Chloro-2-methoxybenzyl)-[2-(1H-indol-3-yl)ethyl]amine], the melting point was 184 to 185 °C.
For the compound `COc1ccc(OC)c(CNCCc2c[nH]c3ccccc23)c1` (as salt: hydrochloride) [Compound 29, N-(2,5-Dimethoxybenzyl)-[2-(1H-indol-3-yl)ethyl]amine], the melting point lay in the range of 175 to 176 °C.
`O=[N+]([O-])c1ccc(O)c(CNCCc2c[nH]c3ccccc23)c1` (as salt: hydrochloride) [Compound 30, N-(5-Nitro-2-hydroxybenzyl)-[2-(1H-indol-3-yl)ethyl]amine] yielded a melting point of 194 to 196 °C.
On the same count and under the same terms, in the case of `Oc1cc(Br)ccc1CNCCc1c[nH]c2ccccc12` (as salt: hydrochloride) [Compound 31, N-(4-Bromo-2-hydroxybenzyl)-[2-(1H-indol-3-yl)ethyl]amine] it was 192 to 194 °C; in that of `COc1ccc(CNCCc2c[nH]c3ccccc23)c(OC)c1` (as salt: hydrochloride) [Compound 32, N-(2,4-Dimethoxybenzyl)-[2-(1H-indol-3-yl)ethyl]amine], 184 to 186 °C.
Same read-out and setting: the value for `Oc1cccc(Br)c1CNCCc1c[nH]c2ccccc12` (as salt: hydrochloride) [Compound 33, N-(6-Bromo-2-hydroxybenzyl)-[2-(1H-indol-3-yl)ethyl]amine] was 195 to 196 °C; that for `Oc1c(Br)cc(Br)cc1CNCCc1c[nH]c2ccccc12` (as salt: hydrochloride) [Compound 35, N-(3,5-Dibromo-2-hydroxybenzyl)-[2-(1H-indol-3-yl)ethyl]amine] was 183 to 184 °C; that for `COc1cccc(CNCCc2c[nH]c3ccccc23)c1O` (as salt: succinate) [Compound 19, N-(2-Hydroxy-3-methoxybenzyl)-[2-(1H-indol-3-yl)ethyl]amine] was 109 to 111 °C.
Still for that read-out and setting: the value for `Oc1c(Br)cccc1CNCCc1c[nH]c2ccccc12` (as salt: succinate) [Compound 21, N-(3-Bromo-2-hydroxybenzyl)-[2-(1H-indol-3-yl)ethyl]amine] was 141 to 142 °C; that for `Oc1c(F)cccc1CNCCc1c[nH]c2ccccc12` (as salt: succinate) [Compound 22, N-(3-Fluoro-2-hydroxybenzyl)-[2-(1H-indol-3-yl)ethyl]amine] was 151 to 152 °C.
As for `Oc1cccc(F)c1CNCCc1c[nH]c2ccccc12` (as salt: succinate) [Compound 34, N-(6-Fluoro-2-hydroxybenzyl)-[2-(1H-indol-3-yl)ethyl]amine], the melting point was in the range of 159 to 161 °C.
Turning to `COc1cc(CCNCc2ccccc2OC)c(OC)cc1I` [Compound 25I-NBOMe, 4-iodo-2,5-dimethoxy-N-(2-methoxybenzyl)phenethylamine, reference compound], the “fold higher in vivo potency (HTR) than compound 38” value in [1] was 40 fold. Moreover, the inhibitory constant (Ki) in [2] was 0.52 nM. In addition, the “ED50 in the mouse head twitch response (HTR) assay” value in series [3] was 0.078 mg/kg.
As to `COc1ccc2[nH]cc(CCNCc3ccccc3OC)c2c1` [Compound 38, N-(2-Methoxybenzyl)-[2-(5-methoxy-1H-indol-3-il)ethyl]amine], in series [4], the “Selectivity 5-HT2A/2C (binding)” value turned out to be 1.55 and the Ki was 44.7 nM. Further, in [5], the “Selectivity 5-HT2C/2A (binding, in parentheses)” value was found to be 0.65 and the Ki was 69.2 nM. In addition, the “5-HT2A pEC50” value in series [6] (Ca2+ mobilization, pEC50 ± SEM) was found to be 8.70 ± 0.20. The EC50 in series [6] (Ca2+ mobilization) is 2 nM and 1.99 nM. Also, the “Selectivity 5-HT2A/2C (functional)” value in [6] was found to be 1.91. In series [6] (setting [12]), the “5-HT2A % Emax” value came to 83.66 ± 3.42% and the maximal response (Emax) was 84%. In series [7], the EC50 was 3.8 nM; the Emax turned out to be 88.7 ± 4.22%; the “Selectivity 5-HT2C/2A (functional, in parentheses)” value is listed as 0.53. For the same compound, the inhibition constant Ki in [2] is 16.6 nM. In addition, in series [8], the “5-HT2A Emax” value is on record as 81% and the concentration for a half-maximal effect (EC50) was 1.9 nM. Moreover, the “ED50 in the mouse head twitch response (HTR) assay” value in [3] is 3.15 mg/kg. Besides, the inhibition constant (Ki) in series [9] was 15.9 nM.
For `COc1ccc2[nH]cc(CCNCc3cc(F)ccc3O)c2c1` [Compound 43, N-(5-Fluoro-2-hydroxybenzyl)-[2-(5-methoxy-1H-indol-3-yl)ethyl]amine], in series [4], the “Selectivity 5-HT2A/2C (binding)” value came out at 9.66 and the Ki was 3.98 nM. Further, in series [5], the “Selectivity 5-HT2C/2A (binding, in parentheses)” value came out at 0.10 and the Ki is 39.8 nM. For the same compound, the EC50 in [6] (Ca2+ mobilization) is 1.4 nM and 1.38 nM. For the same compound, in series [6], the “Selectivity 5-HT2A/2C (functional)” value is reported as 2.63. The Emax in [6] (setting [12]) came to 83.3 ± 2.26%. Moreover, in series [7], the 50% effective concentration (EC50) was 3.63 nM; the maximal effect (Emax) came out at 106 ± 3.05%; the “Selectivity 5-HT2C/2A (functional, in parentheses)” value stood at 0.38. Moreover, in series [9], affinity was put at a Ki of 8.91 nM.
With `CC(C)N(CCc1c[nH]c2ccccc12)C(C)C` [N,N-diisopropyltryptamine], the results for the inhibitory constant (Ki) in [10] and in series [11] were 1200 nM and 6500 nM, respectively.
Take `CN(C)CCc1c[nH]c2ccccc12` [N,N-dimethyltryptamine]: the results for the Ki in [10] and in [11] were 237 nM and 424 nM, respectively.
Turning to `COc1ccc2[nH]cc(CCN(C)C(C)C)c2c1` [N-isopropyl-N-methyl-5-methoxytryptamine], the inhibitory constant (Ki) in series [10] is 165 nM; in [11], 1300 nM.
